Here are results for 6 compounds from patent publication US20260184663A1, “INDENE COMPOUNDS, PHARMACEUTICAL COMPOSITIONS THEREOF, AND THEIR THERAPEUTIC APPLICATIONS” (NucMito Pharmaceuticals co. Ltd., priority 2022, published 2026).

Common to all, as to assay type: cell-based
The test system of one experiment is SW480 (colon cancer). Nature of the experiment: Antiproliferative activity (CCK-8 cell viability), SW480. As to conditions: Homo sapiens, 72 h; for inhibition at 3.3 µM: Compound concentration: 3.3 μM; for inhibition at 10 µM: Compound concentration: 10 μM; for inhibition at 30 µM: Compound concentration: 30 μM. How it is done:
(§1) The antiproliferative activity of a compound was determined in the following cell lines: MDA-MB-231 (breast cancer), HepG2 (liver cancer), SW480 (colon cancer), B16F10 (malignant melanoma), A431 (epidermoid carcinoma), A549 (lung adenocarcinoma), and HeLa (cervical cancer). MDA-MB-231, HepG2, SW480, B16F10, and A431 cells were cultured in Dulbecco's modified Eagle's medium (DMEM) containing 10% fetal bovine serum (FBS). HeLa cells were cultured in MEM/EBSS (MEM) containing 10% FBS. A549 cells were maintained in Kaighn's modification of Ham's F-12 medium containing 10% FBS. A Cell Counting Kit-8 (CCK-8) was used to measure the cell viability of different cells following treatment with the compound.
(§2) Briefly cells were seeded in a 96-well plate at a density of 2,000-5,000 cells/well. Following attachment, the cells were treated with the compound in media at a compound concentration of 3.3 μM, 10 μM, or 30 μM. After the cells were incubated at 37° C. for 72 h, a CCK-8 solution (10 μL) was added to each well. After incubation at 37° C. for 4 h, the absorbance value of each well was determined using a multi-well plate reader at 450 nm. The wells treated with DMSO were taken as a vehicle control. Data were also obtained similarly for all the replicates and the percentage of cell viability was determined with respect to the DMSO-treated cells. The results are summarized in Tables 2-4, wherein A represents no less than […] of cell growth; B represents no less than 30% but less than 50% inhibition of cell growth; and C represents less than 30% inhibition of cell growth.

The subject of experiment [1] is MDA-MB-231 (breast cancer). Nature of the experiment: Antiproliferative activity (CCK-8 cell viability), MDA-MB-231. The note with it: Homo sapiens, 72 h; for inhibition at 3.3 µM: Compound concentration: 3.3 μM; for inhibition at 10 µM: Compound concentration: 10 μM; for inhibition at 30 µM: Compound concentration: 30 μM. The protocol:
as §1, §2

The test system of experiment [2] is B16F10 (malignant melanoma). Nature of the experiment: Antiproliferative activity (CCK-8 cell viability), B16F10. The note with it: Mus musculus, 72 h, read-out: Antiproliferative activity in cancerous cells, B16F10 (inhibition of cell growth); for inhibition at 3.3 µM: B16-F10, Compound concentration: 3.3 μM; for inhibition at 10 µM: B16-F10, Compound concentration: 10 μM; for inhibition at 30 µM: B16-F10, Compound concentration: 30 μM. The protocol:
as §1, §2

In experiment [3] the test system is A431 (epidermoid carcinoma). The experiment can be described thus: Antiproliferative activity (CCK-8 cell viability), A431. As to conditions: Homo sapiens, 72 h, read-out: Antiproliferative activity in cancerous cells, A431 (inhibition of cell growth); for inhibition at 3.3 µM: A-431, Compound concentration: 3.3 μM; for inhibition at 10 µM: A-431, Compound concentration: 10 μM; for inhibition at 30 µM: A-431, Compound concentration: 30 μM. The protocol:
as §1, §2

The subject of experiment [4] is A549 (lung adenocarcinoma). The experiment can be described thus: Antiproliferative activity (CCK-8 cell viability), A549. As to conditions: Homo sapiens, 72 h; for inhibition at 3.3 µM: Compound concentration: 3.3 μM; for inhibition at 10 µM: Compound concentration: 10 μM; for inhibition at 30 µM: Compound concentration: 30 μM. The protocol: as §1, §2
Another experiment relates to HepG2 (liver cancer). The experiment can be described thus: Antiproliferative activity (CCK-8 cell viability), HepG2. The note with it: Homo sapiens, 72 h, read-out: Antiproliferative activity in cancerous cells, HepG2 (inhibition of cell growth); for inhibition at 3.3 µM: Compound concentration: 3.3 μM; for inhibition at 10 µM: Compound concentration: 10 μM; for inhibition at 30 µM: Compound concentration: 30 μM. The protocol:
as §1, §2

Another experiment deals with HeLa (cervical cancer). Nature of the experiment: Antiproliferative activity (CCK-8 cell viability), HeLa. The note with it: Homo sapiens, 72 h, read-out: Antiproliferative activity in cancerous cells, HELA (inhibition of cell growth); for inhibition at 3.3 µM: Compound concentration: 3.3 μM; for inhibition at 10 µM: Compound concentration: 10 μM; for inhibition at 30 µM: Compound concentration: 30 μM. The protocol:
as §1, §2

Setting [5] is: read-out: Antiproliferative activity in cancerous cells, SW480 (inhibition of cell growth).
Where [6] appears, read: read-out: Antiproliferative activity in cancerous cells, MDA-MB-231 (inhibition of cell growth).
The mark [7] stands for this setting: read-out: Antiproliferative activity in cancerous cells, MDA-MB-231.
The mark [8] stands for this setting: read-out: Antiproliferative activity in cancerous cells, A549 (inhibition of cell growth).

SMILES strings stand for the structures. Read-outs that look alike come from different tables or passages of the source.

Consider `CC1=C(CC(=O)O)c2cc(Cl)ccc2/C1=C\c1ccc(COc2ccc(C(F)(F)F)cc2)cc1` [B58, (Z)-2-(5-Chloro-2-methyl-1-(4-((4-(trifluoromethyl)phenoxy)methyl)-benzylidene)-1H-inden-3-yl)acetic acid], for which the inhibition at 3.3 µM is below 30% with SW480 (colon cancer) (setting [5]); below 30% in experiment [1] (setting [6]); at least 50% in experiment [2]; 30 to 50% in experiment [3]; below 30% in experiment [4] (setting [8]); below 30% in the experiment on HepG2 (liver cancer). Also, the inhibition at 3.3 µM in the experiment with HeLa (cervical cancer) is 30 to 50%. The inhibition at 10 µM in the experiment with SW480 (colon cancer) (setting [5]) is 30 to 50%; in experiment [1] (setting [6]), below 30%; in experiment [2] it was at least 50%; in experiment [3], 30 to 50%; in experiment [4] (setting [8]), 30 to 50%; in the experiment with HepG2 (liver cancer), at least 50%. In the experiment on HeLa (cervical cancer), the inhibition at 10 µM was at least 50%. Besides, the inhibition at 30 µM in experiment [1] (setting [7]) lay in the range of 30 to 50%.
Take `COc1ccc(C(=O)c2ccc(/C=C3/C(C)=C(CC(=O)O)c4cc(F)ccc43)cc2)cc1` [C306, (Z)-2-(5-Fluoro-1-(4-(4-methoxybenzoyl)benzylidene)-2-methyl-1H-inden-3-yl)acetic acid]: the inhibition at 3.3 µM is 30 to 50% in the experiment on SW480 (colon cancer) (setting [5]); at least 50% in experiment [1] (setting [6]); below 30% in experiment [2]; at least 50% in experiment [3]; below 30% in experiment [4] (setting [8]); 30 to 50% in the experiment with HepG2 (liver cancer). In addition, the inhibition at 3.3 µM in the experiment with HeLa (cervical cancer) lay in the range of 30 to 50%. Further, the inhibition at 10 µM with SW480 (colon cancer) (setting [5]) is 30 to 50%; in experiment [1] (setting [6]), at least 50%; in experiment [2] it was at least 50%; in experiment [3], at least 50%; in experiment [4] (setting [8]), 30 to 50%; with HepG2 (liver cancer), at least 50%. For the same compound, in the experiment with HeLa (cervical cancer), the inhibition at 10 µM is at least 50%. Further, the inhibition at 30 µM is at least 50% with SW480 (colon cancer) (setting [5]); at least 50% in experiment [1] (setting [6]); at least 50% in experiment [2]; at least 50% in experiment [3]; 30 to 50% in experiment [4] (setting [8]); at least 50% in the experiment with HepG2 (liver cancer). Also, the inhibition at 30 µM with HeLa (cervical cancer) is at least 50%.
Turning to `CC1=C(CC(=O)O)c2cc(F)ccc2/C1=C\c1ccc(CCOC2CCCCO2)cc1` (stereo not drawn) [B47, (Z)-2-(5-Fluoro-2-methyl-1-(4-(2-((tetrahydro-2H-pyran-2-yl)oxy)ethyl)-benzylidene)-1H-inden-3-yl)acetic acid], the inhibition at 3.3 µM is below 30% with SW480 (colon cancer) (setting [5]); at least 50% in experiment [1] (setting [6]); at least 50% in experiment [2]; 30 to 50% in experiment [3]; below 30% in experiment [4] (setting [8]); 30 to 50% with HepG2 (liver cancer). For the same compound, the inhibition at 3.3 µM in the experiment on HeLa (cervical cancer) was at least 50%. For the same compound, the inhibition at 10 µM in the experiment on SW480 (colon cancer) (setting [5]) was at least 50%; in experiment [1] (setting [6]) it was at least 50%; in experiment [2], at least 50%; in experiment [3], 30 to 50%; in experiment [4] (setting [8]) it was at least 50%; with HepG2 (liver cancer) it was at least 50%. Moreover, the inhibition at 10 µM in the experiment on HeLa (cervical cancer) was at least 50%.
Regarding `CC(=O)CC(=O)N1CCC(Oc2ccc(/C=C3/C(C)=C(CC(=O)O)c4cc(F)ccc43)cc2)CC1` [C203, (Z)-2-(5-Fluoro-2-methyl-1-(4-((1-(3-oxobutanoyl)piperidin-4-yl)oxy)-benzylidene)-1H-inden-3-yl)acetic acid], the inhibition at 3.3 µM in the experiment on SW480 (colon cancer) (setting [5]) was below 30%; in experiment [1] (setting [6]), below 30%; in experiment [2], below 30%; in experiment [3] it was at least 50%; in experiment [4] (setting [8]) it was 30 to 50%; in the experiment on HepG2 (liver cancer) it was below 30%. Also, the inhibition at 3.3 µM in the experiment on HeLa (cervical cancer) was below 30%. For the same compound, the inhibition at 10 µM in the experiment with SW480 (colon cancer) (setting [5]) was below 30%; in experiment [1] (setting [6]) it was below 30%; in experiment [2], at least 50%; in experiment [3] it was at least 50%; in experiment [4] (setting [8]), below 30%; with HepG2 (liver cancer), below 30%. Also, in the experiment on HeLa (cervical cancer), the inhibition at 10 µM is below 30%. Further, the inhibition at 30 µM with SW480 (colon cancer) (setting [5]) is below 30%; in experiment [1] (setting [6]), below 30%; in experiment [2] it was at least 50%; in experiment [3], at least 50%; in experiment [4] (setting [8]) it was below 30%; in the experiment on HepG2 (liver cancer) it was below 30%. Moreover, in the experiment on HeLa (cervical cancer), the inhibition at 30 µM is below 30%.
Turning to `CC1=C(CC(=O)O)c2cc(Cl)ccc2/C1=C\c1ccc(Oc2ccc(F)cc2)cc1` [C63, (Z)-2-(5-Chloro-1-(4-(4-fluorophenoxy)benzylidene)-2-methyl-1H-inden-3-yl)acetic acid], the inhibition at 3.3 µM is below 30% with SW480 (colon cancer) (setting [5]); below 30% in experiment [1] (setting [6]); 30 to 50% in experiment [2]; at least 50% in experiment [3]; 30 to 50% in experiment [4] (setting [8]); 30 to 50% in the experiment with HepG2 (liver cancer). Also, the inhibition at 3.3 µM in the experiment on HeLa (cervical cancer) is 30 to 50%. The inhibition at 10 µM in the experiment on SW480 (colon cancer) (setting [5]) is below 30%; in experiment [1] (setting [6]), below 30%; in experiment [2], 30 to 50%; in experiment [3], at least 50%; in experiment [4] (setting [8]), 30 to 50%; with HepG2 (liver cancer), at least 50%. For the same compound, the inhibition at 10 µM with HeLa (cervical cancer) was at least 50%. Also, the inhibition at 30 µM in the experiment on SW480 (colon cancer) (read-out: Antiproliferative activity in cancerous cells, SW480) was below 30%; in experiment [1] (setting [7]), 30 to 50%; in experiment [4] (read-out: Antiproliferative activity in cancerous cells, A549), 30 to 50%.
`CC1=C(CC(=O)O)c2cc(F)ccc2/C1=C\c1ccc(CCCc2ccccc2)cc1` [B114, (Z)-2-(5-Fluoro-2-methyl-1-(4-(3-phenylpropyl)benzylidene)-1H-inden-3-yl)acetic acid]: the inhibition at 3.3 µM with SW480 (colon cancer) (setting [5]) is at least 50%; in experiment [1] (setting [6]) it was below 30%; in experiment [2] it was below 30%; in experiment [3], 30 to 50%; in experiment [4] (setting [8]), 30 to 50%; with HepG2 (liver cancer), at least 50%. Further, the inhibition at 3.3 µM in the experiment on HeLa (cervical cancer) was at least 50%. Further, the inhibition at 10 µM is at least 50% with SW480 (colon cancer) (setting [5]); below 30% in experiment [1] (setting [6]); below 30% in experiment [2]; at least 50% in experiment [3]; at least 50% in experiment [4] (setting [8]); at least 50% in the experiment with HepG2 (liver cancer). In addition, in the experiment with HeLa (cervical cancer), the inhibition at 10 µM was at least 50%.
